What was measured:
Type in all cases: in vivo
[1] = test system: cat flea; experiment: Insecticidal experiment on cat flea, thin film in culture dish; details: Ctenocephalides felis, 72 h, read-out: mortality rate, cat flea
Method: 4 mg of the compound to be determined was dissolved in 40 mL of acetone to obtain an acetone solution with a concentration of 100 mg/L. 400 μL of the drug solution was applied on the bottom and sides of a culture dish with an inner diameter of 5.3 cm, then after acetone was evaporated, a thin film of the compound of the present invention was made on the inner wall of the culture dish. The inner wall of the culture dish used was 40 cm^2, and the treatment dosage was 1 μg/cm^2. 10 adult cat fleas (mixed male and female) were put into the dish, and it was stored in a constant-temperature room at 25° C. after being covered. The number of dead insects after 72 h was checked and the mortality rate was calculated. The experiment was repeated for 3 times.

[2] = test system: Franklinella occidentalis; experiment: Insecticidal activity against Franklinella occidentalis nymphs, sprayed bean leaves
Method: (§1) After the compound to be determined was dissolved in a mixed solvent of acetone/methanol (1:1), it was diluted with water containing 0.1% (wt) Tween-80 to a desired concentration.
(§2) Mythimna separata, Diamondback moth, Chilo suppressalis, Spodoptera exigua, Myzus persicae, and Franklinella occidentalis were used as targets, and the activity was tested by an Airbrush spray method.
Determination method: fresh bean leaves cultivated in a greenhouse were selected, a hand-held Airbrush sprayer was used to spray uniformly, each treatment was 1 mL, and after being air-dried naturally, the leaves were placed in a finger-shaped tube. Neat and healthy Franklinella occidentalis nymphs were introduced, there were 15 nymphs for each treatment, 3 replicates were set for the experiment, and water treatment was set as a blank control. After the treatment, the leaves were put into an indoor culture room for culture at 24° C., a relative humidity of 60-70%, and natural light. After 72 h, the number of live insects was investigated and the mortality rate was calculated.

[3] = test system: Chilo suppressalis; experiment: Insecticidal activity against Chilo suppressalis, sprayed rice stems; details: 72 h, 0.625 mg/L, 3 days after the administration, 3rd-instar larvae, read-out: mortality rate against Chilo suppressalis
Method: as §1, §2
Determination method: 1) Preparation of rice seedlings: rice was cultured in a plastic small cup with a diameter of 4.5 cm and a height of 4 cm in a constant temperature room (the temperature was 26-28° C., the relative humidity was about 60-80%, and the illumination was 16hL:8hD), when the rice grown to a 4-5 leaf stage, robust and uniformly grown rice seedlings were selected for pharmaceutical treatment, and 3 replicates were set for each treatment. 2) Preparation of test insects: 3rd-instar larvae of Chilo suppressalis were continuously reared indoors. 3) Rice stems were sprayed and insects were introduced. A spray method was used to treat whole rice seedlings with uniform spray, and each treatment was 15 mL. Blank controls were treated firstly, and then the above operation was repeated in an order of experimental concentrations from low to high. After the spray treatment of the rice seedlings, they were placed in the shade to air-dry drug liquid, about 5 cm of the stem from a basal part of the stem was cut and fed to the test insects. A glass culture dish with a diameter of 90 mm was prepared, filter paper was placed on the bottom of the dish, then water was added to moisturize. About 5 rice stems were placed in each dish, 10 larvae were introduced, and the culture dish was closed with non-woven fabric and placed in the constant-temperature room for culture. 3 days after the administration, the number of residual live insects was investigated.

[4] = test system: Spodoptera exigua; experiment: Insecticidal activity against Spodoptera exigua, leaf disc dipping feeding method; details: foliar, 72 h, 0.625 mg/L, 3 days after the administration, read-out: mortality rate against Spodoptera exigua
Method: After the compound to be determined was dissolved in a mixed solvent of acetone/methanol (1:1), it was diluted with water containing 0.1% (wt) Tween-80 to a desired concentration. […]
Determination method: the activity was tested by using a leaf disc dipping feeding method. Leaf discs were dipped in a drug solution for 10 s, and placed in a culture dish after being air-dried, there were 4 discs in each dish, and a filter paper was placed in the culture dish for moisture retention. 10 test insects of Spodoptera exigua were introduced to each dish, with 3 replicates.
They were placed in a light incubator for culture at a temperature of 25° C. and an illumination of 14hL:10hD. On the 1st, 2nd, and 3rd day after the administration, the number of dead Spodoptera exigua was investigated and the mortality rate was calculated.

[5] = test system: Diamondback moth; experiment: Insecticidal activity against Diamondback moth, Airbrush spray on cabbage leaf discs; details: Plutella xylostella, foliar, 72 h, 3 days after the administration; for mortality at 0.156 µg/mL: 0.156 mg/L, read-out: Mortality rate (%, 3 days after the administration) 0.156 mg/L; for mortality at 0.156 µg/mL / mortality at 0.313 µg/mL / mortality at 10 µg/mL: Diamondback moth; for mortality at 0.313 µg/mL: 0.313 mg/L, read-out: Mortality rate (%, 3 days after the administration) 0.313 mg/L; for mortality at 1.25 µg/mL: 1.25 mg/L, 3rd-instar larvae, read-out: mortality rate against Diamondback moth; for mortality at 10 µg/mL: 10 mg/L, read-out: Mortality rate (%, 3 days after the administration) 10 mg/L
Method: as §1, §2
Determination method: cabbage leaves were formed into leaf discs having a diameter of 2 cm using a puncher, and the front and back of each leaf disc were sprayed under an Airbrush spray treatment pressure of 10 psi (approximate to 0.7 kg/cm^2) and with a spray volume of 0.5 mL. After drying in the shade, 10 3rd-instar larvae were inoculated for each treatment, and each treatment was repeated for 3 times. After the treatment, the leaf discs were placed into an observation chamber at 25° C. and with a relative humidity of 60% to 70%, and the number of living larvae was investigated 3 days after the administration of the compounds, and the mortality rates were calculated.

[6] = test system: Mythimna separata; experiment: Insecticidal activity against Mythimna separata, Airbrush spray on maize leaf pieces; details: 72 h, 0.05 mg/L, 3 days after the administration, 3rd-instar larvae, read-out: mortality rate against Mythimna separata
Method: as §1, §2
Determination method: maize leaves were cut into 2 cm leaf pieces, and the front and back of each leaf piece were sprayed under an Airbrush spray treatment pressure of 10 psi (approximate to 0.7 kg/cm^2) and with a spray volume of 0.5 mL. After drying in the shade, 10 3rd-instar larvae were inoculated for each treatment, and each treatment was repeated for 3 times. After the treatment, the leaf pieces were put into an observation chamber at 25° C. and with a relative humidity of 60% to 70%, and the number of living larvae was investigated 3 days after the administration of the compounds, and the mortality rates were calculated.

[7] = test system: Myzus persicae; experiment: Insecticidal activity against Myzus persicae, Airbrush spray on cabbage leaves; details: 50 mg/L, after 48 h, read-out: mortality rate against Myzus persicae
Method: as §1, §2
Determination method: a culture dish with a diameter of 6 cm was taken, the bottom of the dish was covered by a layer of filter paper, and an appropriate amount of tap water was added to moisturize the paper. Cabbage leaves with an appropriate size (the diameter was about 3 cm) and 15-30 aphids grown were cut from cabbage plants used to culture Myzus persicae, winged aphids and aphids on the front of the leave were removed, and it was placed in the culture dish while the back of the leave was upward. The pressure of airbrush spray treatment was 10 psi (about 0.7 kg/cm^2), the liquid spray volume was 0.5 mL, and there were 3 replicates for each treatment. After the treatment, the leave was put into an observation room for culture at 25° C. and a relative humidity of 60-70%. After 48 h, the number of live insects was investigated and the mortality rate was calculated.

Row | SMILES | mortality at 1 µg/cm2 [1] [%] | Mortality rate (%, 3 days after the administration) 10 mg/L [2] [%] | Mortality rate (%, 3 days after the administration) 100 mg/L [2] [%] | mortality at 0.625 µg/mL [3] [%] | mortality at 0.625 µg/mL [4] [%] | mortality at 0.156 µg/mL [5] [%] | mortality at 0.313 µg/mL [5] [%] | mortality at 1.25 µg/mL [5] [%] | mortality at 10 µg/mL [5] [%] | mortality at 0.05 µg/mL [6] [%] | mortality at 50 µg/mL [7] [%]
1 | C=CCN(C(=O)c1ccc(F)nc1)c1cccc(C(=O)Nc2c(Br)cc(C(F)(C(F)(F)F)C(F)(F)F)cc2C(F)(F)F)c1F [Compound 19] | > 90 | 100 | 100 | > 90 | > 90 | 100 | 100 | > 90 | 100 | > 90 | > 90
2 | C#CCN(C(=O)c1ccc(F)cc1)c1cccc(C(=O)Nc2c(I)cc(C(F)(C(F)(F)F)C(F)(F)F)cc2C(F)(F)F)c1F [Compound 36] | > 90 | 95.56 | 100 | > 90 | > 90 | 100 | 100 | > 90 | 100 | > 90 | > 90
3 | C#CCN(C(=O)c1ccccc1)c1cccc(C(=O)Nc2c(Br)cc(C(F)(C(F)(F)F)C(F)(F)F)cc2C(F)(F)F)c1F [Compound 31] | > 90 | 97.78 | 100 | > 90 | > 90 | 100 | 100 | > 90 | 100 | > 90 | > 90
4 | C#CCN(C(=O)c1ccc(F)cc1)c1cccc(C(=O)Nc2c(Br)cc(C(F)(C(F)(F)F)C(F)(F)F)cc2C(F)(F)F)c1F [Compound 35] | > 90 | 100 | 100 | > 90 | > 90 | 100 | 100 | > 90 | 100 | > 90 | > 90
5 | C=CCN(C(=O)c1ccc(F)cc1)c1cccc(C(=O)Nc2c(Br)cc(C(F)(C(F)(F)F)C(F)(F)F)cc2C(F)(F)F)c1F [Compound 7] | > 90 | 91.11 | 100 | > 90 | > 90 | 100 | 100 | > 90 | 100 | > 90 | > 90
6 | C#CCN(C(=O)c1ccc(C#N)nc1)c1cccc(C(=O)Nc2c(I)cc(C(F)(C(F)(F)F)C(F)(F)F)cc2C(F)(F)F)c1F [Compound 52] | > 90 |  |  | > 90 | > 90 |  |  | > 90 | 100 | > 90 | > 90
7 | C=CCN(C(=O)c1ccc(C#N)cc1)c1cccc(C(=O)Nc2c(Br)cc(C(F)(C(F)(F)F)C(F)(F)F)cc2C(F)(F)F)c1F [Compound 11] | > 90 |  |  | > 90 | > 90 |  |  | > 90 | 100 | > 90 | > 90
8 | C#CCN(C(=O)c1ccc(C#N)cc1)c1cccc(C(=O)Nc2c(I)cc(C(F)(C(F)(F)F)C(F)(F)F)cc2C(F)(F)F)c1F [Compound 40] | > 90 |  |  | > 90 | > 90 |  |  | > 90 | 100 | > 90 | > 90
9 | C#CCN(C(=O)c1ccc(C(F)(F)F)nc1)c1cccc(C(=O)Nc2c(I)cc(C(F)(C(F)(F)F)C(F)(F)F)cc2C(F)(F)F)c1F [Compound 56] | > 90 |  |  | > 90 | > 90 |  |  | > 90 | 100 | > 90 | > 90
10 | C=CCN(C(=O)c1ccc(C#N)nc1)c1cccc(C(=O)Nc2c(I)cc(C(F)(C(F)(F)F)C(F)(F)F)cc2C(F)(F)F)c1F [Compound 24] | > 90 |  |  | > 90 | > 90 |  |  | > 90 | 100 | > 90 | > 90
11 | C#CCN(C(=O)c1ccc(C#N)cc1)c1cccc(C(=O)Nc2c(Br)cc(C(F)(C(F)(F)F)C(F)(F)F)cc2C(F)(F)F)c1F [Compound 39] | > 90 |  |  | > 90 | > 90 |  |  | > 90 | 100 | > 90 | > 90
12 | C#CCN(C(=O)c1ccc(C#N)nc1)c1cccc(C(=O)Nc2c(Br)cc(C(F)(C(F)(F)F)C(F)(F)F)cc2C(F)(F)F)c1F [Compound 51] | > 90 |  |  | > 90 | > 90 |  |  | > 90 | 100 | > 90 | > 90
